The text below walks through data of US20190224202A1, “STABLE LIQUID FORMULATIONS OF PEMETREXED” (LEIUTIS PHARMACEUTICALS PVT. LTD., priority 2015, published 2019).

A short description of data set [1]: Solubility study of Pemetrexed diacid in various amino acids in water. The class given is physicochemical. To be noted: 25° C. As to the method:
Solubility studies of Pemetrexed were performed with various amino acids alone and in combination with other excipients in water at 25° C. to check the solubility.

The nature of data set [2]: Solubility of Pemetrexed diacid in water (statement). It is filed as physicochemical.

Consider `Nc1nc2[nH]cc(CCc3ccc(C(=O)N[C@@H](CCC(=O)O)C(=O)O)cc3)c2c(=O)[nH]1` [Pemetrexed diacid, N-{4-[2-(2-Amino-4-oxo-4,7-dihydro-1H-pyrrolo[2,3-d]pyrimidin-5-yl)ethyl]benzoyl}-L-glutamic acid], for which the “Description (solubility study)” value in data set [1] (Pemetrexed diacid 50 mg, Arginine 116 mg, Water 1 ml) is “Clear”; in data set [1] (Pemetrexed diacid 50 mg, Arginine 133 mg, Water 1 ml), “Clear”; in data set [1] (Pemetrexed diacid 50 mg, Arginine 166 mg, Water 1 ml), “Clear”; in data set [1] (Pemetrexed diacid 100 mg, Histidine 100 mg, Glycine 50 mg, Ammonium acetate 100 mg, Sucrose 50 mg, Water 2.5 ml), “Clear”; in data set [1] (Pemetrexed diacid 100 mg, Histidine 100 mg, Glycine 50 mg, Ammonium acetate 100 mg, Water 2.5 ml) it was “Clear”; in data set [1] (Pemetrexed diacid 100 mg, Histidine 100 mg, Glycine 100 mg, Ammonium acetate 100 mg, Sucrose 50 mg, Water 2.5 ml) it was “Clear”. The “Description (solubility study)” value is listed as “Clear” in data set [1] (Pemetrexed diacid 100 mg, Histidine 100 mg, Glycine 100 mg, Ammonium acetate 100 mg, Water 2.5 ml); “Clear” in data set [1] (Pemetrexed diacid 100 mg, Histidine 100 mg, Glycine 100 mg, Sucrose 50 mg, Water 2.5 ml); “Clear” in data set [1] (Pemetrexed diacid 100 mg, Histidine 100 mg, Glycine 100 mg, Water 2.5 ml); “Clear” in data set [1] (Pemetrexed diacid 100 mg, Histidine 100 mg, Glycine 200 mg, Ammonium acetate 100 mg, Sucrose 50 mg, Water 2.5 ml); “Clear” in data set [1] (Pemetrexed diacid 100 mg, Histidine 100 mg, Glycine 200 mg, Ammonium acetate 100 mg, Water 2.5 ml). The Solubility in water entry in data set [2] is recorded as “practically insoluble”.
